For one assay, the system named is homozygous tkv mutants. The assay can be described thus: Rescue of tkv mutant flies by the ubiquitin-promoter reporter transgene. The class given is in vivo, Drosophila. The conditions noted are these: expressed from the ubiquitin promoter in transgenic flies. From the text:
Using P-element mediated transgenesis with the plasmids described above transgenic fly lines were generated in a w^1118 background expressing the TIPF fusion protein under control of the ubiquitously expressed Ubiquitin promoter or in a tissue specific manner from the UAS promotor. For both transgenic construct insertions on all three major chromosomes were obtained. Insertions on the X chromosome were balanced with FM6 w^−, 2nd chromosome insertion were balanced with CyO and 3rd chromosomal insertions with TM3, Sb.

Assay [1] concerns phosphorylated Smad1/5 transcription factors. The assay can be described thus: phospho-SMAD1/5/8 antibody staining of fixed embryos. It is filed as in vivo, Danio rerio. The conditions noted are these: 30% epiboly. From the text:
While at that stage there is not yet a morphological marker for the prospective dorsal or ventral sides of the embryo, BMP pathway activation can be detected by accumulation of phosphorylated Smad1/5 transcription factors in the prospective ventral nuclei. […] As shown in FIG. 3 (top), fluorescence of the TIPF reporter (left) coincides with the region of increased pSmad staining (center).

Assay [2] has as its system zebrafish BMP receptor ALK3. Briefly: Zebrafish ALK3 reporter in zebrafish assays according to example 1. The class given is in vivo. The note with it: assays as in example 1. From the text:
To generate the zebrafish ALK3 reporter construct, the Tkv CDS was excised from the TIPF reporter (as constructed in example 1) with PstI and EcoRI to obtain the linearized expression vector without the TGF-beta receptor according to SEQ ID No. 22. In this vector the corresponding full length cDNA encoding the zebrafish ALK3 according to SEQ ID No. 2 was cloned, which was amplified from a custom cDNA library using primers carrying EcoRI (5′primer) and NsiI (3′primer).
Zebrafish assays were performed according to example 1.

Sequence of zebrafish BMP receptor ALK3 (as listed by the source): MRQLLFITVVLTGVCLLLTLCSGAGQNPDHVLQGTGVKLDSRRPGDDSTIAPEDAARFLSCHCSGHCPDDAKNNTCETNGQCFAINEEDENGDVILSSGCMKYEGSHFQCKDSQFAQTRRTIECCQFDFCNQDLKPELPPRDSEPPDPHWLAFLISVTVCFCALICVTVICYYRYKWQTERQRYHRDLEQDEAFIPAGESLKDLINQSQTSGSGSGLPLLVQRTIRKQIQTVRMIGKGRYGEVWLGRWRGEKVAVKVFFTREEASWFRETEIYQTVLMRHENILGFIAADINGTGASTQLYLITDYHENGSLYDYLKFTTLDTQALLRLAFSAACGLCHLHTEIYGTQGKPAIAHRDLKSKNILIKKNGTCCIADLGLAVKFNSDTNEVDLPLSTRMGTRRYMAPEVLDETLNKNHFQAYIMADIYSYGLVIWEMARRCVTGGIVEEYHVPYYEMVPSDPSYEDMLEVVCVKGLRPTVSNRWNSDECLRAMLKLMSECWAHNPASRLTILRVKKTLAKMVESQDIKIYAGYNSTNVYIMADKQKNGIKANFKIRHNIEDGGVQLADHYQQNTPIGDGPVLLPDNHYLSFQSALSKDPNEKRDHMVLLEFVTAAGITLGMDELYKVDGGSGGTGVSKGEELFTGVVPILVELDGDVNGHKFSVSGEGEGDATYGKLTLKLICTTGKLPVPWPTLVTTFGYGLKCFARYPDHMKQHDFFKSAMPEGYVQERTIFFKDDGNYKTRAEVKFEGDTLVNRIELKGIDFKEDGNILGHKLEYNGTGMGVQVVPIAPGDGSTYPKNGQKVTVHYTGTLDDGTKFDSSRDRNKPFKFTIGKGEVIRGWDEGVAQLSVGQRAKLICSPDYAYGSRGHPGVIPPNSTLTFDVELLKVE

“TIPF reporter: fusion protein of Drosophila Tkv, an inverse pericam core and Drosophila FKBP12 linked by short linkers”: in the assay on homozygous tkv mutants, the “rescue of lethality of homozygous tkv mutants” value is recorded as “rescue the lethality associated with homozygous tkv mutants to full adult survival”. Besides, the “reporter fluorescence versus region of phospho-Smad staining” value in assay [1] is listed as “coincided with the region of BMP pathway activation”.

In the case of “zebrafish ALK3 reporter: Inverse Pericam core and Drosophila FKBP12 cassette fused to the zebrafish BMP receptor ALK3”, the “behaviour of reporter in zebrafish assays” value in assay [2] is reported as “behaved like the fly version used in example 1”.

The values are drawn from US20100021931A1, “Fluorescence based reporter construct for the direct detection of TGF-beta receptor activation and modulators thereof” (Technische Universitat Dresden, priority 2008, published 2010).
